# Data published in ChEMBL document CHEMBL1201862, “PubChem BioAssay data set” (2004).
# “And” between values parts separate entries of the source, which are not always exact repeats. Identical values can stand only once. The source made the active and inactive calls.
# Tests used:
# [1] = NIH-3T3 fibroblast cytotoxicity, dose response, cytotoxicity control, cell-based, fluorescence, Alamar Blue, secondary assay (AID 2327); type: functional;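 note: NIH-3T3 mouse fibroblasts cultured with fluconazole at 8 µg/mL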
# [2] = decrease of insulin promoter-GFP reporter – imaging, high-content screening, mouse beta cells (AID 1628); type: functional; details: MIN6
# [3] = MIN6 cell viability loss – mouse insulinoma, cytotoxicity control, dose response (AID 2122); type: functional;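 note: confirmatory high-throughput counterscreen run to flag cytotoxic compounds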
# [4] = fluconazole-exposed Candida albicans growth modulators – fluorescence, retest, confirmation (AID 2467); type: functional, cell-based
# [5] = Luminescence-based counterscreen assay for KLF5 inhibitors: dose response cell-based high throughput screening assay to identify cytotoxic compounds using the IEC-6 intestinal epithelial cell line. [Related pubchem assays: 1700 (Primary screen.), 1834 (Confirmation screen.), 1858 (Summary AID.), 1905 (Counterscreen.)]; type: functional
# [6] = target: T1, Mannose-6-phosphate isomerase (Homo sapiens, UniProt P34949); assay: MPI enzyme activity inhibition – biochemical, fluorescence intensity, coupled assay, primary screen (AID 1209)
# T1 sequence (P34949 whole entry): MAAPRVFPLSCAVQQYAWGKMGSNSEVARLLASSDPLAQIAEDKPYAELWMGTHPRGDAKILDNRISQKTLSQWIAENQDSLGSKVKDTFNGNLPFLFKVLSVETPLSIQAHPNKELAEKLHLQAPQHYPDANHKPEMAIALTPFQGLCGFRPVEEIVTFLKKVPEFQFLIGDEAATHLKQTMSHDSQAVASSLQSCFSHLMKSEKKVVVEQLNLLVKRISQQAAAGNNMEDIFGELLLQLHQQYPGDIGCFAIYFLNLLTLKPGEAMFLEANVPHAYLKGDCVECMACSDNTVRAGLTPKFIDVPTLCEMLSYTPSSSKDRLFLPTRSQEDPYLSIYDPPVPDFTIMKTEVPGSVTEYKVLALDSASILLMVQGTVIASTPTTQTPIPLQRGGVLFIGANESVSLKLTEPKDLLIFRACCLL
# [7] = Trypanosoma cruzi growth suppression in host cells – NIH3T3 host cells, beta-gal luminescence, confirmation (AID 2044); type: functional, cell-based;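 note: intracellular parasites grown in NIH/3T3 mouse fibroblasts as host cells; luminescent beta-galactosidase reporter signal from transgenic T. cruzi replicating inside host cells; inhibitors lower the luminescence signal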
# [8] = viability of PTEN-deleted HCT116 cells – cell-based, HCT116 PTEN knockout, dose response (AID 1047); type: functional;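 note: HCT116 colon tumor cells with PTEN knocked out; cells exposed to compound for 60 hours before readout; potency for loss of cell viability measured by luminescence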
# [9] = NIH3T3 cell viability loss – ATP luminescence, mouse fibroblasts, counter-screen, dose response (AID 2010); type: functional, cell-based;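 note: cells exposed to compound for about 90 hours before reading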
# [10] = viability of HCT116 lacking mutant beta-catenin – cell-based, human colon tumor, dose response (AID 1045); type: functional;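 note: HCT116 colon tumor cells with beta catenin knocked out; cells exposed to compound for 60 hours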
# Nonstructural protein 1 = Nonstructural protein 1 (Influenza A virus, UniProt Q194T2); type: functional, Influenza A virus (A/California/07/2009(H1N1))
# Nonstructural protein 1, sequence (Q194T2 whole entry): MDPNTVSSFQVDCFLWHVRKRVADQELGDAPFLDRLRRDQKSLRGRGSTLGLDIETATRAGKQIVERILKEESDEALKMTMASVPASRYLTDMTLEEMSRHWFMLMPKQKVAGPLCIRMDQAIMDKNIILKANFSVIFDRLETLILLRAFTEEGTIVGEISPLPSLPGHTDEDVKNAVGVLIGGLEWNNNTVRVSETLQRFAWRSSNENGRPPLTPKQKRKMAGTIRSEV
# INS1 = assay: INS-1E survival protection against cytokine death – cell-based, luminescence, retest, dose response (AID 449756); type: functional; details: Rattus norvegicus;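 note: cell death triggered by IL-1 beta plus TNF-alpha plus IFN-gamma mixture; protective hits raise ATP signal compared with cytokine alone wells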
# [11] = cytotoxicity toward MDA-MB-231 breast cancer cells – cell-based, CellTiter-Glo luminescence, cherry-pick, cytotoxicity control for RAD54 inhibitor project, dose response (AID 651692); type: functional
# [12] = target: T2, DNA repair and recombination protein RAD54-like (Homo sapiens, UniProt Q92698); assay: RAD54 Holliday junction migration blockers – biochemical, fluorescence, cherry-picked samples, dose series, confirmation (AID 651657); type: functional
# T2 sequence (Q92698 whole entry): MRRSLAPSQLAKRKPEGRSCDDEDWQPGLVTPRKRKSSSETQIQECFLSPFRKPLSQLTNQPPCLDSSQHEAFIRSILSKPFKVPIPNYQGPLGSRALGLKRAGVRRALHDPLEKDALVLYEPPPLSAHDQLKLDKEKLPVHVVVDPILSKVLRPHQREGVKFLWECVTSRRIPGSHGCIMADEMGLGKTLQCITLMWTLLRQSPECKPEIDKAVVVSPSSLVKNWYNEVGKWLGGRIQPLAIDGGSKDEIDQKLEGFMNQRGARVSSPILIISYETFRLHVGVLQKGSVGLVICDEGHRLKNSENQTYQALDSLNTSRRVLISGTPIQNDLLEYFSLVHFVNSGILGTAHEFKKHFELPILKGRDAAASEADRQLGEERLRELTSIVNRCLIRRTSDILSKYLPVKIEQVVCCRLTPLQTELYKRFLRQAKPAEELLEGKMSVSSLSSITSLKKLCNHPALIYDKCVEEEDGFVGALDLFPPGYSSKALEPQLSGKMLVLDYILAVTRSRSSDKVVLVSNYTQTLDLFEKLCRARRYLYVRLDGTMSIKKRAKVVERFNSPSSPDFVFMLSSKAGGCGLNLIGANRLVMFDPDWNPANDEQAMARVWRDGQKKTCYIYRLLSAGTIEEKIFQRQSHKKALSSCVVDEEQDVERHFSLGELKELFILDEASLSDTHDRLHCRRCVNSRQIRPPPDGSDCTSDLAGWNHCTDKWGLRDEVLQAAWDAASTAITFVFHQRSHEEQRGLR
# [13] = target: Metabotropic glutamate receptor 6 (Homo sapiens, UniProt O15303); assay: Modulation of the Metabotropic Glutamate Receptor mGluR4: Selectivity at mGluR6. [Related pubchem assays (depositor defined):AID2437, AID2807]; type: functional
# [14] = target: Metabotropic glutamate receptor 2 (Rattus norvegicus, UniProt P31421); assay: mGluR2 modulation, off-target check – cell-based, rat, selectivity assay for mGluR4 modulator project (AID 2188); type: functional
# [15] = target: Metabotropic glutamate receptor 3 (Rattus norvegicus, UniProt P31422); assay: Modulation of the Metabotropic Glutamate Receptor mGluR4: Selectivity at mGluR3. [Related pubchem assays (depositor defined):AID2437, AID2807]; type: functional
# [16] = target: Metabotropic glutamate receptor 8 (Rattus norvegicus, UniProt P70579); assay: Modulation of the Metabotropic Glutamate Receptor mGluR4: Selectivity at mGluR8. [Related pubchem assays (depositor defined):AID2437, AID2807]; type: functional
# [17] = target: Metabotropic glutamate receptor 1 (Rattus norvegicus, UniProt P23385); assay: Modulation of the Metabotropic Glutamate Receptor mGluR4: Selectivity at mGluR1. [Related pubchem assays (depositor defined):AID2437, AID2807]; type: functional
# SUMO E1/E2 = SUMO E1/E2 (Homo sapiens, UniProt P63279+Q9UBE0+Q9UBT2); assay: SAR analysis of SUMOylation using HTRF in an in-Vitro dose response assay. [Related pubchem assays (depositor defined):AID2006, AID2011, AID2018, AID2069, AID2658]; type: functional
# SUMO E1/E2, sequence (Q9UBE0 whole entry): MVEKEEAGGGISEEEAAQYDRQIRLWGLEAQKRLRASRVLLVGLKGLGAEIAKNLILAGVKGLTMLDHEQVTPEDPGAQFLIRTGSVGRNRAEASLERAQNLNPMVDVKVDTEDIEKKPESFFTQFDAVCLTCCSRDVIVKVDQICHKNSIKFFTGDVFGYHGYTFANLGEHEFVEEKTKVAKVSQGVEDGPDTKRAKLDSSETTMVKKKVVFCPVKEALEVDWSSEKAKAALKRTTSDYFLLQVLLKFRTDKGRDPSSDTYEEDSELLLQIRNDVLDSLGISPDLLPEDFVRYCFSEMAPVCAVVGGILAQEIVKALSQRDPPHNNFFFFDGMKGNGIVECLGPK
# SUMO E1/E2, sequence (Q9UBT2 whole entry): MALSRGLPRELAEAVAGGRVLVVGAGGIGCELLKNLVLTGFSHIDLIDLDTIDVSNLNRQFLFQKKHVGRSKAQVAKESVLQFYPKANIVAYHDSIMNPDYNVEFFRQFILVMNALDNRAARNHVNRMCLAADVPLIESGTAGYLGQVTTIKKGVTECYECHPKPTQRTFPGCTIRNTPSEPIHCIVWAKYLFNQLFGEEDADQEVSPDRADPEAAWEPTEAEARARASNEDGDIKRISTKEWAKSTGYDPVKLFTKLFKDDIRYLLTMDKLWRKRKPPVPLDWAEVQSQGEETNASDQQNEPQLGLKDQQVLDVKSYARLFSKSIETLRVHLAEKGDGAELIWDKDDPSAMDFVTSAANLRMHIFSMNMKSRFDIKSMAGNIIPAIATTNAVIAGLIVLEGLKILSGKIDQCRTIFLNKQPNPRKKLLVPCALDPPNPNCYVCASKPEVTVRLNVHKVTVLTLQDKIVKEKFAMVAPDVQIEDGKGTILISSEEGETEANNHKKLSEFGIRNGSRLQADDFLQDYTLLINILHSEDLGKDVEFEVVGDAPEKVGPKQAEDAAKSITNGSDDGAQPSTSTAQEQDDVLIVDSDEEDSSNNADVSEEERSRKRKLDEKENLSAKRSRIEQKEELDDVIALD
# SUMO E1/E2, sequence (P63279 whole entry): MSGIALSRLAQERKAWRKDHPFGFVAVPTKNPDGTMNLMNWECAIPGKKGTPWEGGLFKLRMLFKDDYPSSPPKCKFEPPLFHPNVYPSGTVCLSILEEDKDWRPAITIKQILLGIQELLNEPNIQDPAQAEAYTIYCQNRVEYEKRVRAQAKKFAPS
# [18] = target: T3, Voltage-gated N-type calcium channel alpha-1B subunit/Amyloid beta A4 precursor protein-binding family A member 1 (Homo sapiens, UniProt Q00975+Q02410); assay: disruptors of Mint-PDZ/N-type channel peptide interaction – biochemical, HTRF, set 2, SAR follow-up (AID 434980); type: functional
# T3 sequence (Q00975 whole entry): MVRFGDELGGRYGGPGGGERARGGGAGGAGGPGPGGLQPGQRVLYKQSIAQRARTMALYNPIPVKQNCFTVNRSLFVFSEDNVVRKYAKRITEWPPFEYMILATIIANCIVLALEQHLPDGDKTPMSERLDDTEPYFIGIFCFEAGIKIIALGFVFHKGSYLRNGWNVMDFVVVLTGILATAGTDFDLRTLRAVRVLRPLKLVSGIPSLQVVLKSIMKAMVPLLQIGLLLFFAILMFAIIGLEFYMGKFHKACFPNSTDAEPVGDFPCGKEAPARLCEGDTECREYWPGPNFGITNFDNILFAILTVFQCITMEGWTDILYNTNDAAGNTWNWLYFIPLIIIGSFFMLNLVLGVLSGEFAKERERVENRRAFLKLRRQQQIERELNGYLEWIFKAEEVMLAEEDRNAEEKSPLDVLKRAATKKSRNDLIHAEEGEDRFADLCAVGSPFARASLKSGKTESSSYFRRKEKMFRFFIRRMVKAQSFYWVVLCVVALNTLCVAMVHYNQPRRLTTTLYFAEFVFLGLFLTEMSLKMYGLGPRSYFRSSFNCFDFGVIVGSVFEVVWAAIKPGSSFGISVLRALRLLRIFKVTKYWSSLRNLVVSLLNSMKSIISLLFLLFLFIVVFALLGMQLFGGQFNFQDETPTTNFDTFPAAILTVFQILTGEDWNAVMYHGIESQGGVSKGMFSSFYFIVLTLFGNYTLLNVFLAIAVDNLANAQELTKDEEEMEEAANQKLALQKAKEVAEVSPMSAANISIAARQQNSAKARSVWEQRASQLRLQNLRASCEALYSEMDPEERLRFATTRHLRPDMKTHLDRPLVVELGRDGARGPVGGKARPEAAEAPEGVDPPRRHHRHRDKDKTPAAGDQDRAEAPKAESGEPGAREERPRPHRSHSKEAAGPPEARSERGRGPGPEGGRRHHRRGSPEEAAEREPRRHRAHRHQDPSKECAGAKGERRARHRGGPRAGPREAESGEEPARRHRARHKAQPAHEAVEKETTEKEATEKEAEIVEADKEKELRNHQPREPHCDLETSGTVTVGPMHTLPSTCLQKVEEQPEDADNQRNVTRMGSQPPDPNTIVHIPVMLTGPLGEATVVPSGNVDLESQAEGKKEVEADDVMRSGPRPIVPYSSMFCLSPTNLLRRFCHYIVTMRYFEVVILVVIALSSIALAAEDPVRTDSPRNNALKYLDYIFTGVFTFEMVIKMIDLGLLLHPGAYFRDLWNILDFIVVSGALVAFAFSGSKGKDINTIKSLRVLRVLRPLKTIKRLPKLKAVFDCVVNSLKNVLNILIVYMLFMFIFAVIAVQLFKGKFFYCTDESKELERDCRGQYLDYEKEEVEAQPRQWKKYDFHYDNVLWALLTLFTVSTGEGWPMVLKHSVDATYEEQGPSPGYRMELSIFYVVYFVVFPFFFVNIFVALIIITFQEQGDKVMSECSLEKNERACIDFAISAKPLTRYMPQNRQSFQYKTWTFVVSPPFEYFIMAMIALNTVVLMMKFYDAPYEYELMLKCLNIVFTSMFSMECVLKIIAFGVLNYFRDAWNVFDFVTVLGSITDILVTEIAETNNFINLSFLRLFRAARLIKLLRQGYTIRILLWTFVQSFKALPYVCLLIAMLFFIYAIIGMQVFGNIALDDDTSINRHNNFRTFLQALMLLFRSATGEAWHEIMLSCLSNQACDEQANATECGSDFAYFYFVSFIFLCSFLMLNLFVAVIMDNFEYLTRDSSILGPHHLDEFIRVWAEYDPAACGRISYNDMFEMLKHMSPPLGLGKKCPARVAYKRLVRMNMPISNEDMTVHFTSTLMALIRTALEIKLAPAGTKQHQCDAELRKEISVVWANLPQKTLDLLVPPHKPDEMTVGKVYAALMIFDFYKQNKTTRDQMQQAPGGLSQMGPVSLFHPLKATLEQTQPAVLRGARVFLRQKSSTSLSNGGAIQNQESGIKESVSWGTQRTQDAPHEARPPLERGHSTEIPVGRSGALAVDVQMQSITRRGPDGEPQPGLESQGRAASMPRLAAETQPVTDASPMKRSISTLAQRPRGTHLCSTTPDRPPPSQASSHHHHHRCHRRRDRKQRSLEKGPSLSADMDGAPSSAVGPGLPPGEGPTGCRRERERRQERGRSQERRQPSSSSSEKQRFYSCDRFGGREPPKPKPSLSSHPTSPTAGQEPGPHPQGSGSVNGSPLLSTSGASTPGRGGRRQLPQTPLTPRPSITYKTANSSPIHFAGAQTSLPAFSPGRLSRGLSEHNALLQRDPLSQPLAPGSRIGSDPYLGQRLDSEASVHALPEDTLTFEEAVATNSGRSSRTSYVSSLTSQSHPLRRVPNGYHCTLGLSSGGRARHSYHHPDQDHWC
# T3 sequence (Q02410 whole entry): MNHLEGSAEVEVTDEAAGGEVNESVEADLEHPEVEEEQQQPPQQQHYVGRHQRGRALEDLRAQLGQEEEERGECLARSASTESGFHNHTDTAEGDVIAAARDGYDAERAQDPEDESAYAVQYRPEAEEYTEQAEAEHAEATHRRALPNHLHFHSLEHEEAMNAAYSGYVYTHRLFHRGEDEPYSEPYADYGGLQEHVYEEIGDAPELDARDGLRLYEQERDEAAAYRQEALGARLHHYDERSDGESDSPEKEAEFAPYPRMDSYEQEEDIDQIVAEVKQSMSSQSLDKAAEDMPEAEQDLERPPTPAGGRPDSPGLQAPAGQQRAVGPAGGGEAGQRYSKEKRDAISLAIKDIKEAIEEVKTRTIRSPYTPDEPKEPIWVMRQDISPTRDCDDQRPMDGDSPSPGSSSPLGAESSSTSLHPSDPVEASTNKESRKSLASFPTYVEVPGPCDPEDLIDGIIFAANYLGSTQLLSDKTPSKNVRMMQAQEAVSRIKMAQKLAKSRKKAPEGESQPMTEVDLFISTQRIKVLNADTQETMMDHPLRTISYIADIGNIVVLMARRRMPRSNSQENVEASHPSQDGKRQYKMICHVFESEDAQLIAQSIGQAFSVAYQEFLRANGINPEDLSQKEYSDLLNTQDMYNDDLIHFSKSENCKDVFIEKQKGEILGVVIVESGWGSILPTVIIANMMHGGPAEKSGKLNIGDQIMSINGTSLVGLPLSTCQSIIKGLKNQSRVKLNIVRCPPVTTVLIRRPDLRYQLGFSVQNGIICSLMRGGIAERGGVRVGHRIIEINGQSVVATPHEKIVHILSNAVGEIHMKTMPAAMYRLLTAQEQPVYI
# [19] = target: T3, Voltage-gated N-type calcium channel alpha-1B subunit/Amyloid beta A4 precursor protein-binding family A member 1; assay: disruptors of Mint-PDZ/N-type channel peptide interaction – biochemical, HTRF, SAR follow-up (AID 2489); type: functional
# Cytochrome P450 1A2 = target: T4, Cytochrome P450 1A2 (Homo sapiens, UniProt P05177);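 note: PubChem cytochrome P450 panel assay, CYP1A2 panel member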
# T4 sequence (P05177 whole entry): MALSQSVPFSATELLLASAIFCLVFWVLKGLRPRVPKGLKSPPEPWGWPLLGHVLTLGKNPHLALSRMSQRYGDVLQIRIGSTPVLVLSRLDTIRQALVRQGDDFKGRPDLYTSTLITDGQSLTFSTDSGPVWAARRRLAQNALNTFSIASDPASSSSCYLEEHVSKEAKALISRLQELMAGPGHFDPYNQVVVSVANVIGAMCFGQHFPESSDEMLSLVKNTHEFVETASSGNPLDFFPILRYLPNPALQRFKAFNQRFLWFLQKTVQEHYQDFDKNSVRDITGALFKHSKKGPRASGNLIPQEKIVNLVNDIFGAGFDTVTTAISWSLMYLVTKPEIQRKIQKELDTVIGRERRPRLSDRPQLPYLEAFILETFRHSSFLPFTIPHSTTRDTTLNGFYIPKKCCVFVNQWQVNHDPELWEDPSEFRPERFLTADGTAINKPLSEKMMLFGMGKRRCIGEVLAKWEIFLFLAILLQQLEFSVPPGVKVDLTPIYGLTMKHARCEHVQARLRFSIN
smiles,measurement,setting,value
Oc1cccc2ccc(Nc3ccccn3)nc12,EC50,[1],4930 nM (inconclusive)
same,IC50,[2],3030 nM (active)
same,IC50,[3],2350 nM (active)
same,EC50,[4],1550 nM (active)
same,IC50,[5],6800 nM (active)
same,IC50,[6],> 50000 nM (not active)
same,EC50,[7],1120 nM (active)
same,EC50,[8],1230 nM (active)
same,EC50,[9],6000 nM (active)
same,EC50,[10],713 nM (active)
same,IC50,Nonstructural protein 1,2350 nM (active)
same,AC50,INS1,1180 nM (active)
same,AC50,[11],15100 nM (active)
same,AC50,[12],15500 nM (active)
O=C(Nc1ccc(N2C(=O)[C@H]3[C@H](C2=O)[C@H]2C=C[C@@H]3C2)c(Cl)c1)c1ccccn1,EC50,[13],2510 nM (active)
same,EC50,[14],787 nM (inactive)
same,EC50,[15],514 nM (inactive)
same,EC50,[16],11000 nM (inactive)
same,EC50,[17],1400 nM (inactive)
O=C(COC(=O)c1cc(-c2ccco2)nc2ccccc12)NCc1ccc(Cl)cc1,IC50,SUMO E1/E2,2.84 µM (active) and 4.46 µM (active)
same,IC50,[18],7.73 µM (active) and 9.82 µM (active)
same,IC50,[19],10.4 µM (active) and > 56.8 µM (inactive)
CC(C)CN1CC2(CCN(C(=O)c3csnn3)CC2)C1,AC50,Cytochrome P450 1A2,inactive
